Activity calls are given as the source filed them. The rule behind the calls is not given here.
Assay: blockers of VCAM1 upregulation by TNFa – imaging, TNFa stimulus, retest and dose response, confirmation (AID 1013);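 for cell count: compound on cells 1 h before TNFa then 24 h more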
Conditions: TNFa-stimulated cells, VCAM1 expression imaging; at 2 µM; stronger effect = higher value

Compound	inhibition
COc1ccc(OC)c(C2CC(=O)c3c([nH]c(C(=O)OC(C)C)c3C)C2)c1 (stereo not drawn)	35.5% (inactive)
O=C(c1ccc2c(c1)ncn2C1CCCCC1)N1CCC2(CC1)OCCO2	4.9% (inactive)
CNC(=O)CN(c1ccc(OC)cc1)S(=O)(=O)c1ccc(F)cc1	6.8% (inactive)
CSc1nc2sc(-c3ccccc3)cc2c(=O)n1N	8.1% (inactive)
CCOc1ccc(-n2c(SCC(=O)Nc3ccc(OC)cc3)nc3c(c2=O)SCC3)cc1	-17% (inactive)
COC(=O)c1c(NC(=O)c2ccc(S(=O)(=O)N3CCOCC3)cc2)sc2c1CCN(C)C2	-5.4% (inactive)
CC1Oc2ccccc2C=C1/C=C1/SC(N2CCOCC2)=NC1=O (stereo not drawn)	-2.1% (inactive)
CCNCC(O)COCC(O)CNCC (stereo not drawn)	1.3% (inactive)
CC(C)C(=O)N1CCN(c2nc(-c3ccccc3)c3c(c2C#N)CC(C)(C)OC3)CC1	5.1% (inactive)
CN(C)c1nc(N(C)C)nc(N(C#N)CCOc2ccccc2)n1	-3.1% (inactive)
Cc1ccc(Nc2nc(CSc3nnnn3C)cs2)cc1	-5.5% (inactive)
C[n+]1ccc(/C=C/c2ccc(Br)cc2)cc1	13.1% (inactive)
CC1Cc2cc(-c3csc(NC(=O)Cc4cccs4)n3)ccc2N1S(C)(=O)=O (stereo not drawn)	0.8% (inactive)
CCOc1cc(S(=O)(=O)Nc2ccccc2CC)ccc1Cl	-2.9% (inactive)
CC1(C)OC(=O)C(=NNc2ccc(O)cc2)C(=O)O1	-6.2% (inactive)
OC1(c2cccc(C(F)(F)F)c2)CCN(c2ncnc3c2[nH]c2ccc(F)cc23)CC1	1% (inactive)
CCNc1nc(NCC)n2c(SCc3ccc(F)cc3)nnc2n1	-6.3% (inactive)
CCCc1nnc(SCC(=O)O)n1/N=C/c1ccc2c(c1)OCO2	-2% (inactive)
CCCOc1ccc(/C(O)=C2/C(=O)C(=O)N(CCOC)C2c2cccnc2)cc1 (stereo not drawn)	8.7% (inactive)
O=C(Nc1ncc2c(n1)CC(c1ccco1)CC2=O)c1ccc(Cl)cc1 (stereo not drawn)	-0.3% (inactive)
CCCOC(=O)c1ccc(NC(=O)Oc2ccccc2)cc1	-2.5% (inactive)
COc1cc(C2Nc3ccc4ncccc4c3C3=C2C(=O)CCC3)cc(OC)c1O (stereo not drawn)	-11.9% (inactive)
N#Cc1cc2c(nc1SCC(=O)N1CCCCC1)CCCC2	-5.8% (inactive)
O=C(N/N=C/c1ccc[nH]1)c1sc2ccccc2c1Cl	13.1% (inactive)
CCOc1ccccc1N1CCN(C(=O)c2cccc(-c3ccc(O)cc3)c2)CC1	-6.4% (inactive)

Compound	inhibition
Cn1c(NC(=O)C2c3ccccc3Oc3ccccc32)cc(=O)n(C)c1=O	-2.7% (inactive)
Cc1nc(S(=O)(=O)N(C)Cc2ccccc2)c(C#N)c(C)c1Cl	1.7% (inactive)
Cc1oc(-c2ccc(Cl)cc2)cc1-c1nn2c(-c3ccoc3C)nnc2s1	-0.1% (inactive)
CCN1C(=O)CSC1=NC12CC3CC(CC(C3)C1)C2	-5.9% (inactive)
CSCCC(NC(=O)OCc1ccccc1)C(=O)O (stereo not drawn)	6.7% (inactive)
CCN(Cc1cc2cc(C)ccc2[nH]c1=O)C(=O)c1cccc(OC)c1	-11.5% (inactive)
COc1ccc(CN2C(=O)[C@@H]3C(c4ccc(F)cc4)=NO[C@@H]3C2=O)cc1	-6.1% (inactive)
CC(C)(C)SCCNC(=O)CN(c1ccc(F)cc1)S(C)(=O)=O	-12.2% (inactive)
C=CCOc1c2ccc(C(=O)NCc3ccccc3OC)cc2nn1C	4.3% (inactive)
CCCn1nc([N+](=O)[O-])c(C(C#N)c2nc3ccccc3s2)c(Cl)c1=O (stereo not drawn)	18.2% (inactive)
C=CCn1c(SCC(=O)Nc2ccc(C(=O)OCC)cc2)nnc1-c1sc(N)nc1C	9.5% (inactive)
CCCc1cc(=O)[nH]c(SCC(=O)Nc2nonc2N)n1	9.8% (inactive)
CCOC(=O)Cc1csc(SCC(=O)/C(C#N)=C(\C)N)n1	3.4% (inactive)
O=C(NCc1ccco1)C1CC(=O)N(c2ccc(F)cc2)C1 (stereo not drawn)	6% (inactive)
Cc1cc(N2CCOCC2)c2c(N)c(C)cc(C)c2n1	-11% (inactive)
Cn1nc(C(=O)OCC(=O)N2CCc3ccccc32)c2ccccc2c1=O	4.8% (inactive)
Cc1cc(C)n(C(=O)c2ccc(NC(=O)C3COc4ccccc4O3)cc2)n1 (stereo not drawn)	3.2% (inactive)
O=C(O)Cc1ccc(NC(=O)C2CC=CCC2C(=O)O)cc1 (stereo not drawn)	4.4% (inactive)
Cc1ccc(F)cc1NC(=O)c1ccc2c(c1)OCO2	-22.8% (inactive)
O=C(Cn1cccc1C(=O)c1ccccc1)NCCN1CCOCC1	-13.5% (inactive)
CCOC(=O)C1=C(CSc2nc3c(cc2C#N)CN(C)CC3)OC(N)=C(C#N)C1c1ccccc1 (stereo not drawn)	-5.4% (inactive)
Cc1ccc(NC(=O)c2oc3c(c2C)C(=O)CC(C)(C)C3)cc1	-0.4% (inactive)
Cc1nn(-c2cc(C)c3ccccc3n2)c2c1C1C(C2)C1(C)C (stereo not drawn)	-11.4% (inactive)
NC(=S)N/N=C/c1ccc(-c2cc(Cl)ccc2Cl)o1	34.6% (inactive)
CC(C)(C)NC(=O)CSc1nsc(SCC(=O)NC(C)(C)C)c1C#N	1.8% (inactive)

Compound	inhibition
O=S(=O)(Nc1ccc(-n2cccc2)cc1)c1ccccc1	11.9% (inactive)
C=CCc1ccccc1OCC(O)CNC (stereo not drawn)	5.5% (inactive)
COc1ccc(Cn2c(CCC(=O)O)nc3cccnc32)cc1	1.7% (inactive)
O=C(CCCCCN1C(=O)c2ccccc2C1=O)Nc1nccs1	-4.8% (inactive)
O=C(COc1ccccc1-c1ccccc1)N/N=C/c1cccc2ccccc12	76.4% (inactive)
NCCN1CCN(CCN)CC1	-8.3% (inactive)
CC1CCCN(c2nc3ccsc3c(=O)s2)C1 (stereo not drawn)	-1.5% (inactive)
COc1cccc(C(=O)Nc2cccc(-c3nc4ncccc4o3)c2C)c1	2.2% (inactive)
CCN(CC)S(=O)(=O)c1ccc(NC(=O)C(C)N(c2ccc(OC)cc2)S(C)(=O)=O)cc1 (stereo not drawn)	-3.6% (inactive)
O=C(CN1CCSCC1)N1CCc2[nH]c3ccc(Br)cc3c2C1	-11.1% (inactive)
O=[N+]([O-])c1ccc(/C=N/n2c(COc3ccccc3)n[nH]c2=S)cc1	-9.2% (inactive)
CCC(C)C1C(C#N)=C(N)Oc2n[nH]c(-c3ccccc3)c21 (stereo not drawn)	-12.6% (inactive)
COc1cccc(CSc2nc3ccccc3cc2C=O)c1	43.3% (inactive)
OCCN=C(c1ccccc1)C12CN3CN(CN(C3)C1)C2	-1.2% (inactive)
CSc1ccc(S(=O)(=O)Nc2ccc3c4c(cccc24)CC3)cc1	17.6% (inactive)
COc1cc2c3c(c1OC)-c1cc(O)ccc1CC3NCC2 (stereo not drawn)	-7.7% (inactive)
CC(=O)Nc1ccc(S(=O)(=O)n2cnc(C)c2)cc1	-13.1% (inactive)
CCOC(=O)C1=C(c2ccccc2)OC(N)=C(C#N)C1c1ccco1 (stereo not drawn)	13.3% (inactive)
COc1cccc(/C=N/Nc2nc(Nc3ccccc3)nc(-n3nc(C)cc3C)n2)c1O	-11.8% (inactive)
CC(=O)c1cccc(S(=O)(=O)N2CCC(n3nnc4cc(F)ccc43)CC2)c1	3.2% (inactive)
Cc1cc(C)n(-c2nc3ccccc3nc2N2CCN(C(=O)c3ccc(Cl)cc3)CC2)n1	-5.2% (inactive)
CCOC(=O)c1ccc(NC(=O)Cn2nnc(-c3ccccc3)n2)cc1	-10% (inactive)
C(=N\Nc1nc2ccccc2s1)/c1cccs1	5.1% (inactive)
NC(=O)c1c(NC(=O)Cc2cccs2)sc2c1CCC2	-16.5% (inactive)
CCCOC(=O)CSC1=C(C#N)C(c2ccccc2OC)C(C#N)C(=O)N1 (stereo not drawn)	-11.7% (inactive)

Compound	inhibition
CCCc1[nH]nc2c1C(c1cccnc1)C(C#N)=C(N)O2 (stereo not drawn)	-7.9% (inactive)
CCOC(=O)c1ccc(NS(=O)C23CC4CC(CC(C4)C2)C3)cc1 (stereo not drawn)	-13.9% (inactive)
Cc1nc(SCc2ccc(Br)cc2)[nH]c(=O)c1C	5.1% (inactive)
CC(C)(CO)NC(=O)CCCOc1ccc(Cl)cc1Cl	-18.9% (inactive)
CCOC(=O)c1cnn(-c2nc(-c3ccc(C)cc3)cs2)c1C(F)(F)F	8.3% (inactive)
COc1ccc(-c2cc3ccc(OCc4nn[nH]n4)cc3oc2=O)cc1OC	-18.3% (inactive)
O=C(c1ccc2snnc2c1)N1CCSCC1	8.5% (inactive)
Cc1ccc(C)c(NC(=S)NC(NC(=O)Cc2cccc3ccccc23)C(Cl)(Cl)Cl)c1 (stereo not drawn)	75.3% (inactive)
CCOC(=O)c1cnn(-c2nc(CC)nc3sc4c(c23)CCC4)c1N	-10.3% (inactive)
COc1ccc(-c2nnc(SCC(=O)NC3CCCCC3)o2)cc1OC	-4.1% (inactive)
Cc1cc(OCc2ccc(F)cc2)nc(-c2ccccc2O)n1	-12.1% (inactive)
Cc1ccn2c(NC(=O)c3ccco3)c(-c3ccccc3)nc2c1	3.4% (inactive)
O=S(=O)(c1ccc2c(c1)OCCCO2)N1CCNCC1	0.5% (inactive)
Cc1cc(C(=O)NN)c2cc(Br)ccc2n1	-7.2% (inactive)
CCOc1ccc(C(=O)C(c2ccccc2)N2CCOCC2)cc1 (stereo not drawn)	-17.7% (inactive)
O=C(CN1CCCCCC1=O)OCc1ncc(-c2ccccc2)o1	9.7% (inactive)
COc1ccccc1C(=O)Nc1ccc2c(c1)nc(CN1CCN(C(C)=O)CC1)n2C	0.2% (inactive)
COc1ccc(Nc2nc(N3CCCC3)nc3ccccc23)c(OC)c1	12.2% (inactive)
CCOC(=O)c1cnc(-n2nc(C)cc2C)nc1N1CCOCC1	0.6% (inactive)
CCOC(=O)Cn1nnnc1CN(CCc1ccccc1)Cc1cc2cc(CC)ccc2[nH]c1=O	3.3% (inactive)
COc1ccc(-c2cc(C(=O)Nc3cc(C)n(Cc4ccc(Cl)cc4)n3)no2)cc1OC	11.7% (inactive)
CCOc1ccc2ccccc2c1/C=N/n1cncn1	2.4% (inactive)
CCC(=O)N1c2ccc(S(=O)(=O)CCC(=O)N3CCn4c3nc3ccccc34)cc2CC1C (stereo not drawn)	-14.1% (inactive)
Nc1nc2c3ccccc3nc(Cc3ccccc3)n2n1	-8.7% (inactive)

Same assay, conditions: TNFa-stimulated cells, VCAM1 expression imaging; cell count; at 10 µM; stronger effect = lower value

Compound	cell count [%]
NC(=S)N/N=C/c1ccc(-c2cc(Cl)ccc2Cl)o1	90.8
O=C(COc1ccccc1-c1ccccc1)N/N=C/c1cccc2ccccc12	87.5
COc1cccc(CSc2nc3ccccc3cc2C=O)c1	91.7
Cc1ccc(C)c(NC(=S)NC(NC(=O)Cc2cccc3ccccc23)C(Cl)(Cl)Cl)c1 (stereo not drawn)	99.3

Source: PubChem BioAssay AID1013 (Columbia University Molecular Screening Center, 2008)
